Laboratory results from patent US12522601B2, “1,3,4-oxadiazole derivative compounds as histone deacetylase 6 inhibitor, and the pharmaceutical composition comprising the same” (CHONG KUN DANG PHARMACEUTICAL CORP., priority 2020, dated 2026).

How the values were obtained:
[1] = biological target: T1, human recombinant HDAC1 (Homo sapiens, UniProt Q13547); experiment: In vitro HDAC enzyme activity inhibition assay, HDAC1 (HDAC Fluorimetric Drug Discovery Kit); assay type: biochemical; settings: human recombinant HDAC1, Fluor de Lys-SIRT1 substrate 10 μM, 30° C. for 60 minutes
T1 construct: purchased Enzo Life Sciences, Inc. BML-SE456
T1 sequence (Q13547 whole entry): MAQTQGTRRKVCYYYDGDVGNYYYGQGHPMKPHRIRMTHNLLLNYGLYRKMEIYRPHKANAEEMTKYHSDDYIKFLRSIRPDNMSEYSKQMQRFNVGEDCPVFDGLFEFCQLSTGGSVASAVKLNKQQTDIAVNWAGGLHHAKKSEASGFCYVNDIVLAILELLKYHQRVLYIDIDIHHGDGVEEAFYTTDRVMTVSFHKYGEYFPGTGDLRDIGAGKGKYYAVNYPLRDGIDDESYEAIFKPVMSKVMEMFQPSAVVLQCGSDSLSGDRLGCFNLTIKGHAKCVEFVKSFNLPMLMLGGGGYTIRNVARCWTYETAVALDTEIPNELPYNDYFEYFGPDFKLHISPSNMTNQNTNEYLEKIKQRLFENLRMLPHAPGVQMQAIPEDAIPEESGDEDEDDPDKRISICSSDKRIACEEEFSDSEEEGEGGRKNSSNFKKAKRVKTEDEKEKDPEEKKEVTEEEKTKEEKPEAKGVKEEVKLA
Method: (§1) In order to confirm the selectivity of the compounds represented by Chemical Formula I of the present invention to HDAC6 through HDAC1 and HDAC6 enzyme activity inhibition experiments, a comparison experiment was performed using the material that has already been developed as a control group.
(§2) HDAC enzyme activity was measured using the HDAC Fluorimetric Drug Discovery Kit (Enzo Life Sciences, Inc., BML-AK511, 516). For the HDAC1 enzyme activity test, human recombinant HDAC1 (BML-SE456) was used as an enzyme source and Fluor de Lys®-SIRT1 (BNL-KI177) was used as a substrate. After dispensing 5-fold diluted compounds into a 96-well plate, 0.3 μg of enzyme and 10 μM substrate were added to each well of the plate and allowed to react at 30° C. for 60 minutes. Next, Fluor de Lys® Developer II (BML-KI176) was added and reacted for 30 minutes to complete the reaction, and then the fluorescence values (Ex 360, Em 460) were measured using a multi-plate reader (Flexstation 3, Molecular Device). The HDAC6 enzymes were tested using human recombinant HDAC6 (382180) from Calbiochem Inc., according to the same protocol as the HDAC1 enzyme activity test method. With respect to the final result values, respective IC50 values were calculated using GraphPad Prism 4.0 program, and results thereof were summarized in Table 5 below.

[2] = biological target: T2, human recombinant HDAC6 (Homo sapiens, UniProt Q9UBN7); experiment: In vitro HDAC enzyme activity inhibition assay, HDAC6 (HDAC Fluorimetric Drug Discovery Kit); assay type: biochemical; settings: for HDAC6 Selectivity (fold): HDAC6 versus HDAC1; for IC50: human recombinant HDAC6, same protocol as the HDAC1 test
T2 construct: purchased Calbiochem Inc. 382180
T2 sequence (Q9UBN7 1-1215): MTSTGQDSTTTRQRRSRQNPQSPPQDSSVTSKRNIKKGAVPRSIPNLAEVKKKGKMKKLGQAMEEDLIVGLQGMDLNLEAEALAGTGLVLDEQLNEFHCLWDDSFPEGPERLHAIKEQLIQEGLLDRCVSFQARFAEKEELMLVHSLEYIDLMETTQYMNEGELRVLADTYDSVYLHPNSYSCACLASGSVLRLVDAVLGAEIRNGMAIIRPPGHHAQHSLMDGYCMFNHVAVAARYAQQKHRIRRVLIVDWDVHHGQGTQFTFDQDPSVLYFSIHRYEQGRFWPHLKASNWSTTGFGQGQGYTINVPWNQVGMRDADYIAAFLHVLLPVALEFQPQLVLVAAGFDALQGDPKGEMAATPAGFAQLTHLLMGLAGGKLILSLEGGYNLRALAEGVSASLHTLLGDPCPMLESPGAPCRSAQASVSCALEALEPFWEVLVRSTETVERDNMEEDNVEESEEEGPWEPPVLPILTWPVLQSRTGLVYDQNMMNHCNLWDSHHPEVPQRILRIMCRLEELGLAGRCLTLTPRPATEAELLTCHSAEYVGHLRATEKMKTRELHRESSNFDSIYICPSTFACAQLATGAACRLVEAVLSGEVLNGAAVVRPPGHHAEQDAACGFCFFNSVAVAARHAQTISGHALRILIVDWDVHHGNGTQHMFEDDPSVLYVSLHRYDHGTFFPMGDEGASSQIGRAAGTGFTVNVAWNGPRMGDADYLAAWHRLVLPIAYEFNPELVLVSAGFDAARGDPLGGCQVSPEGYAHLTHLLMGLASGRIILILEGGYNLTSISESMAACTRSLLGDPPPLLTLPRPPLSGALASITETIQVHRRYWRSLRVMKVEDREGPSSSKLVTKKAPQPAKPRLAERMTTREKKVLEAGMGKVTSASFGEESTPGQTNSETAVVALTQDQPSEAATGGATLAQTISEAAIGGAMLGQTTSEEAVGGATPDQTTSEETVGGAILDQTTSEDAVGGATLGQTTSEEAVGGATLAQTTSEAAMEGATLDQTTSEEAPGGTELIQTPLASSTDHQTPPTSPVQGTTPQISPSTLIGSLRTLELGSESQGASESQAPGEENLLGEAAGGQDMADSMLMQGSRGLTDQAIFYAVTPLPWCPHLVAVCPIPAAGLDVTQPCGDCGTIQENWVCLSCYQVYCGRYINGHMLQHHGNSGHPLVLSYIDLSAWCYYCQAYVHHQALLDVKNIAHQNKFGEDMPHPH
Method: as §1, §2

IC50 [1] [nM] | HDAC6 Selectivity (fold) [2] [fold] | IC50 [2] [nM] | SMILES
> 50000 | 437 | 114 | O=C(N1CCN(C2COC2)CC1)N(Cc1cn2ccc(-c3nnc(C(F)F)o3)cc2n1)c1ccccc1 [Compound 3785]
> 50000 | 245 | 204 | O=C(C1CCN(C(=O)C(F)(F)F)CC1)N(Cc1cn2ccc(-c3nnc(C(F)F)o3)cc2n1)c1cccc(F)c1 [Compound 4152, N-((7-(5-(difluoromethyl)-1,3,4-oxadiazol-2-yl)imidazo[1,2-a]pyridin-2-yl)methyl)-N-(3-fluorophenyl)-1-(2,2,2-trifluoroacetyl)piperidine-4-carboxamide]
> 50000 | 193 | 259 | CCC(=O)N1CCN(C(=O)N(Cc2cn3ccc(-c4nnc(C(F)F)o4)cc3n2)c2ccccc2)CC1 [Compound 4041, N-((7-(5-(difluoromethyl)-1,3,4-oxadiazol-2-yl)imidazo[1,2-a]pyridin-2-yl)methyl)-N-phenyl-4-propionylpiperazine-1-carboxamide]
> 50000 | 326 | 153 | O=C(N1CCN(C2CC3(COC3)C2)CC1)N(Cc1cn2ccc(-c3nnc(C(F)F)o3)cc2n1)c1cccc(F)c1 [Compound 4621]
> 50000 | 168 | 298 | CC(CO)N1CCN(C(=O)N(Cc2cn3ccc(-c4nnc(C(F)F)o4)cc3n2)c2ccccc2)CC1 (stereo not drawn) [Compound 4035, N-((7-(5-(difluoromethyl)-1,3,4-oxadiazol-2-yl)imidazo[1,2-a]pyridin-2-yl)methyl)-4-(1-hydroxypropan-2-yl)-N-phenylpiperazine-1-carboxamide]
> 50000 | 403 | 124 | CC(C)N1CCC(C(=O)N(Cc2cn3ccc(-c4nnc(C(F)F)o4)cc3n2)c2cccc(F)c2)CC1 [Compound 4139, N-((7-(5-(difluoromethyl)-1,3,4-oxadiazol-2-yl)imidazo[1,2-a]pyridin-2-yl)methyl)-N-(3-fluorophenyl)-1-isopropylpiperidine-4-carboxamide]
> 50000 | 196 | 255 | FC(F)c1nnc(-c2ccn3cc(CNC45CC6CC(CC(C6)C4)C5)nc3c2)o1 [Compound 3677, (3s,5s,7s)-N-((7-(5-(difluoromethyl)-1,3,4-oxadiazol-2-yl)imidazo[1,2-a]pyridin-2-yl)methyl)adamantane-1-amine]

The remaining lines, values behind:

SMILES | IC50 [1] [nM] | HDAC6 Selectivity (fold) [2] [fold] | IC50 [2] [nM]
CC(CO)N1CC(C(=O)N(Cc2cn3ccc(-c4nnc(C(F)F)o4)cc3n2)c2ccccc2)C1 (stereo not drawn) [Compound 4161, N-((7-(5-(difluoromethyl)-1,3,4-oxadiazol-2-yl)imidazo[1,2-a]pyridin-2-yl)methyl)-1-(1-hydroxypropan-2-yl)-N-phenylazetidine-3-carboxamide] | > 50000 | 224 | 223
O=C(C1COC1)N1CCC(C(=O)N(Cc2cn3ccc(-c4nnc(C(F)F)o4)cc3n2)c2ccccc2)CC1 [Compound 4126, N-((7-(5-(difluoromethyl)-1,3,4-oxadiazol-2-yl)imidazo[1,2-a]pyridin-2-yl)methyl)-1-(oxetan-3-carbonyl)-N-phenylpiperidine-4-carboxamide] | > 50000 | 124 | 404
COC(=O)N1CCC(C(=O)N(Cc2cn3ccc(-c4nnc(C(F)F)o4)cc3n2)c2ccccc2)CC1 [Compound 4129, methyl 4-(((7-(5-(difluoromethyl)-1,3,4-oxadiazol-2-yl)imidazo[1,2-a]pyridin-2-yl)methyl)(phenyl)carbamoyl)piperidine-1-carboxylate] | > 50000 | 125 | 401
O=C(C1CN(C2CCC(F)(F)CC2)C1)N(Cc1cn2ccc(-c3nnc(C(F)F)o3)cc2n1)c1cccc(F)c1 [Compound 4196, 1-(4,4-Difluorocyclohexyl)-N-((7-(5-(difluoromethyl)-1,3,4-oxadiazol-2-yl)imidazo[1,2-a]pyridin-2-yl)methyl)-N-(3-fluorophenyl) azetidine-3-carboxamide] | > 50000 | 276 | 181
CCN1CC(C(=O)N(Cc2cn3ccc(-c4nnc(C(F)F)o4)cc3n2)c2ccccc2)C1 [Compound 4159, N-((7-(5-(difluoromethyl)-1,3,4-oxadiazol-2-yl)imidazo[1,2-a]pyridin-2-yl)methyl)-1-ethyl-N-phenylazetidine-3-carboxamide] | > 50000 | 118 | 425
O=C(C1CCN(C2CCOCC2)CC1)N(Cc1cn2ccc(-c3nnc(C(F)F)o3)cc2n1)c1ccccc1 [Compound 4120, N-((7-(5-(difluoromethyl)-1,3,4-oxadiazol-2-yl)imidazo[1,2-a]pyridin-2-yl)methyl)-N-phenyl-1-(tetrahydro-2H-pyran-4-yl)piperidine-4-carboxamide] | > 50000 | 98 | 509
FC(F)c1nnc(-c2ccn3cc(Cc4ccc(Cl)cc4)nc3c2)o1 [Compound 3593, 2-(2-(4-chlorobenzyl)imidazo[1,2-a]pyridin-7-yl)-5-(difluoromethyl)-1,3,4-oxadiazole] | > 50000 | 191 | 261
O=C(N1CCN(C2CCC2)CC1)N(Cc1cn2ccc(-c3nnc(C(F)F)o3)cc2n1)c1ccccc1 [Compound 4036, 4-cyclobutyl-N-((7-(5-(difluoromethyl)-1,3,4-oxadiazol-2-yl)imidazo[1,2-a]pyridin-2-yl)methyl)-N-phenylpiperazine-1-carboxamide] | > 50000 | 321 | 156
O=C(N1CCN(c2ncccn2)CC1)N(Cc1cn2ccc(-c3nnc(C(F)F)o3)cc2n1)c1cccc(F)c1 [Compound 4101, N-((7-(5-(difluoromethyl)-1,3,4-oxadiazol-2-yl)imidazo[1,2-a]pyridin-2-yl)methyl)-N-(3-fluorophenyl)-4-(pyrimidin-2-yl)piperazine-1-carboxamide] | > 50000 | 464 | 108
O=C(C1CN(C2CCOCC2)C1)N(Cc1cn2ccc(-c3nnc(C(F)F)o3)cc2n1)c1cccc(F)c1 [Compound 4195, N-((7-(5-(difluoromethyl)-1,3,4-oxadiazol-2-yl)imidazo[1,2-a]pyridin-2-yl)methyl)-N-(3-fluorophenyl)-1-(tetrahydro-2H-pyran-4-yl) azetidine-3-carboxamide] | > 50000 | 261 | 192
O=C(C1CCN(C2CCOCC2)CC1)N(Cc1cn2ccc(-c3nnc(C(F)F)o3)cc2n1)c1cccc(F)c1 [Compound 4144, N-((7-(5-(difluoromethyl)-1,3,4-oxadiazol-2-yl)imidazo[1,2-a]pyridin-2-yl)methyl)-N-(3-fluorophenyl)-1-(tetrahydro-2H-pyran-4-yl)piperidine-4-carboxamide] | > 50000 | 206 | 243
